Reference: patent publication US4652548A (Eli Lilly and Company, priority 1984, dated 1987)

System: fasting Type II diabetic patients
Assay: Subcutaneous administration to fasting Type II diabetic patients: plasma glucose
Format: in vivo, human
Details: for Plasma Glucose, Mean: mean total dose 18.7 I.U. (0.2 U/kg s.c.)

human proinsulin: human proinsulin, available by organic synthesis, isolation from human pancreas or recombinant DNA methodology
Blood glucose level of each subject (0.2 U/kg s.c., normal range about 80-110 mg/dl): lowered to a normal range | Hypoglycemia among subjects (five Type II subjects, 0.2 U/kg s.c., insulin: by approximately 300 minutes): hypoglycemia nowhere evidenced | Plasma Glucose, Mean (mean of subjects with values, 360 min after injection): 102 mg/dL | Plasma Glucose, Mean (mean of subjects with values, 400 min after injection): 95 mg/dL | Plasma Glucose, Mean (mean of subjects with values, 440 min after injection): 92 mg/dL | Plasma Glucose, Mean (mean of subjects with values, 480 min after injection): 96 mg/dL | Plasma Glucose, Mean (mean of subjects, 0 min after injection): 245 mg/dL | Plasma Glucose, Mean (mean of subjects, 40 min after injection): 235 mg/dL | Plasma Glucose, Mean (mean of subjects, 80 min after injection): 221 mg/dL | Plasma Glucose, Mean (mean of subjects, 120 min after injection): 205 mg/dL | Plasma Glucose, Mean (mean of subjects, 160 min after injection): 188 mg/dL | Plasma Glucose, Mean (mean of subjects, 280 min after injection): 129 mg/dL | Plasma Glucose, Mean (mean of subjects, 300 min after injection): 113 mg/dL | Plasma Glucose (subject four, total dose 16.3 I.U. (0.2 U/kg s.c.), 0 min after injection): 290 mg/dL | Plasma Glucose (subject four, total dose 16.3 I.U. (0.2 U/kg s.c.), 40 min after injection): 282 mg/dL | Plasma Glucose (subject four, total dose 16.3 I.U. (0.2 U/kg s.c.), 80 min after injection): 272 mg/dL | Plasma Glucose (subject four, total dose 16.3 I.U. (0.2 U/kg s.c.), 120 min after injection): 250 mg/dL | Plasma Glucose (subject four, total dose 16.3 I.U. (0.2 U/kg s.c.), 160 min after injection): 230 mg/dL | Plasma Glucose (subject four, total dose 16.3 I.U. (0.2 U/kg s.c.), 200 min after injection): 200 mg/dL | Plasma Glucose (subject four, total dose 16.3 I.U. (0.2 U/kg s.c.), 240 min after injection): 183 mg/dL | Plasma Glucose (subject four, total dose 16.3 I.U. (0.2 U/kg s.c.), 280 min after injection): 152 mg/dL | Plasma Glucose (subject four, total dose 16.3 I.U. (0.2 U/kg s.c.), 300 min after injection): 127 mg/dL | Plasma Glucose (subject four, total dose 16.3 I.U. (0.2 U/kg s.c.), 360 min after injection): 101 mg/dL | Plasma Glucose (subject four, total dose 16.3 I.U. (0.2 U/kg s.c.), 400 min after injection): 82 mg/dL | Plasma Glucose (subject four, total dose 16.3 I.U. (0.2 U/kg s.c.), 440 min after injection): 77 mg/dL | Plasma Glucose (subject one, total dose 14.8 I.U. (0.2 U/kg s.c.), 0 min after injection): 213 mg/dL | Plasma Glucose (subject one, total dose 14.8 I.U. (0.2 U/kg s.c.), 40 min after injection): 203 mg/dL | Plasma Glucose (subject one, total dose 14.8 I.U. (0.2 U/kg s.c.), 80 min after injection): 187 mg/dL | Plasma Glucose (subject one, total dose 14.8 I.U. (0.2 U/kg s.c.), 160 min after injection): 140 mg/dL | Plasma Glucose (subject one, total dose 14.8 I.U. (0.2 U/kg s.c.), 240 min after injection): 81 mg/dL | Plasma Glucose (subject one, total dose 14.8 I.U. (0.2 U/kg s.c.), 280 min after injection): 77 mg/dL | Plasma Glucose (subject one, total dose 14.8 I.U. (0.2 U/kg s.c.), 300 min after injection): 80 mg/dL | Plasma Glucose (subject one, total dose 14.8 I.U. (0.2 U/kg s.c.), 320 min after injection): 80 mg/dL | Plasma Glucose (subject three, total dose 27.2 I.U. (0.2 U/kg s.c.), 0 min after injection): 159 mg/dL | Plasma Glucose (subject three, total dose 27.2 I.U. (0.2 U/kg s.c.), 40 min after injection): 144 mg/dL | Plasma Glucose (subject three, total dose 27.2 I.U. (0.2 U/kg s.c.), 120 min after injection): 128 mg/dL | Plasma Glucose (subject three, total dose 27.2 I.U. (0.2 U/kg s.c.), 200 min after injection): 110 mg/dL | Plasma Glucose (subject three, total dose 27.2 I.U. (0.2 U/kg s.c.), 240 min after injection): 101 mg/dL | Plasma Glucose (subject three, total dose 27.2 I.U. (0.2 U/kg s.c.), 280 min after injection): 98 mg/dL | Plasma Glucose (subject three, total dose 27.2 I.U. (0.2 U/kg s.c.), 300 min after injection): 88 mg/dL | Plasma Glucose (subject three, total dose 27.2 I.U. (0.2 U/kg s.c.), 360 min after injection): 84 mg/dL | Plasma Glucose (subject three, total dose 27.2 I.U. (0.2 U/kg s.c.), 400 min after injection): 85 mg/dL | Plasma Glucose (subject three, total dose 27.2 I.U. (0.2 U/kg s.c.), 440 min after injection): 86 mg/dL | Plasma Glucose (subject three, total dose 27.2 I.U. (0.2 U/kg s.c.), 480 min after injection): 88 mg/dL | Plasma Glucose (subject two, total dose 20.0 I.U. (0.2 U/kg s.c.), 0 min after injection): 231 mg/dL
